Results on two compounds are retold here after ChEMBL document CHEMBL3526094, “Methadone N-demethylation by the common CYP2B6 allelic variant CYP2B6.6” (Drug Metab Dispos, 2013).

Each structure is given as a SMILES string.

Common to all, as to assay type: ADME
What all share (conditions): human, recombinant enzyme

A short description of series [1]: Drug metabolism assessed as recombinant CYP2B6.1 (unknown origin) expressed in insect cell microsomes-mediated R-2-ethyl-1,5-dimethyl-3,3-diphenylpyrrolidine formation at 0.25 to 2 uM after 10 mins high-pressure liquid chromatography analysis.
Series [2] is described as follows: Drug metabolism assessed as recombinant CYP2B6.1 (unknown origin) expressed in insect cell microsomes-mediated S-2-ethyl-1,5-dimethyl-3,3-diphenylpyrrolidine formation at 0.25 to 2 uM after 10 mins high-pressure liquid chromatography analysis.
Series [3] can be described thus: Drug metabolism assessed as recombinant CYP2B6.6 (unknown origin) expressed in insect cell microsomes-mediated R-2-ethyl-1,5-dimethyl-3,3-diphenylpyrrolidine formation at 0.25 to 2 uM after 10 mins high-pressure liquid chromatography analysis.
The nature of series [4]: Drug metabolism assessed as recombinant CYP2B6.6 (unknown origin) expressed in insect cell microsomes-mediated S-2-ethyl-1,5-dimethyl-3,3-diphenylpyrrolidine formation at 0.25 to 2 uM after 10 mins high-pressure liquid chromatography analysis.

For the compound `CCC(=O)C(CC(C)N(C)C)(c1ccccc1)c1ccccc1` (racemic) [METHADONE], the Ks in series [1] was 40 µM; in series [2], 13 µM; in series [3], 57 µM; in series [4], 20 µM.

Turning to `CCC(=O)C(CC(C)N(C)C)(c1ccccc1)c1ccccc1` (stereo in doubt) [METHADONE], the Ks stood at 75 µM in series [1], 25 µM in series [2], 97 µM in series [3] and 40 µM in series [4].
